Laboratory results from the supplement of paper PMC10307832.

Legend:
Assay in all cases: relative viability (nuclei count vs DMSO), 5 days (fraction); higher = more cells survive
[1] = compound: NS(=O)(=O)OC[C@@H]1C[C@@H](n2ccc3c(N[C@H]4CCc5ccccc54)ncnc32)C[C@@H]1O [MLN4924] + C[C@]1(O)C[C@@H](c2nc(-c3ccc4ccc(-c5ccccc5)nc4c3)c3c(N)nccn32)C1 [Linsitinib] (partner 1 µM)
Method in brief: (§1)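 Cells from lung cancer lines were seeded into 1536-well plates and, one day later, dosed by pin tool. Treatments were either a single drug or a fixed dose of an anchor drug with five library-drug doses (not always all listed) in √10 steps. After 5 days, nuclei were stained in a one-step fixation (final 0.05% Triton X-100, 1% formaldehyde, 1 ug/ml Hoechst) and counted on 4× images, and relative viability is the treated-to-vehicle nuclei ratio, as the median of duplicate plates.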

[2] = compound: NS(=O)(=O)OC[C@@H]1C[C@@H](n2ccc3c(N[C@H]4CCc5ccccc54)ncnc32)C[C@@H]1O [MLN4924] + CC1(C)CCC(c2ccc(Cl)cc2)=C(CN2CCN(c3ccc(C(=O)NS(=O)(=O)c4ccc(N[C@H](CCN5CCOCC5)CSc5ccccc5)c(S(=O)(=O)C(F)(F)F)c4)cc3)CC2)C1 [Navitoclax] (partner 0.5 µM)
Method in brief: as §1

[3] = compound: C1CC(C1)(C(=O)O)C(=O)O.[NH2-].[NH2-].[Pt+2] [Carboplatin] + CS(=O)(=O)N1CCN(Cc2cc3nc(-c4cccc5[nH]ncc45)nc(N4CCOCC4)c3s2)CC1 [Pictilisib] (partner 1 µM)
Method in brief: as §1

[4] = compound: C1CC(C1)(C(=O)O)C(=O)O.[NH2-].[NH2-].[Pt+2] [Carboplatin] + CC(=O)c1c(C)c2cnc(Nc3ccc(N4CCNCC4)cn3)nc2n(C2CCCC2)c1=O [Palbociclib] (partner 0.5 µM)
Method in brief: as §1

Cell Line | relative viability ([1]; first compound 0.04 µM) | relative viability ([1]; first compound 0.1265 µM) | relative viability ([1]; first compound 0.4 µM) | relative viability ([1]; first compound 1.265 µM) | relative viability ([1]; first compound 4 µM) | relative viability ([2]; first compound 0.04 µM) | relative viability ([2]; first compound 0.1265 µM) | relative viability ([2]; first compound 0.4 µM) | relative viability ([2]; first compound 1.265 µM) | relative viability ([2]; first compound 4 µM) | relative viability ([3]; first compound 0.08 µM) | relative viability ([3]; first compound 0.253 µM) | relative viability ([3]; first compound 0.8 µM) | relative viability ([3]; first compound 2.53 µM) | relative viability ([3]; first compound 8 µM) | relative viability ([4]; first compound 0.08 µM) | relative viability ([4]; first compound 0.253 µM) | relative viability ([4]; first compound 0.8 µM) | relative viability ([4]; first compound 2.53 µM) | relative viability ([4]; first compound 8 µM)
NCI-H1703 | 0.235 | 0.241 | 0.157 | 0.111 | 0.146 | 0.133 | 0.14 | 0.188 | 0.133 | 0.124 | 0.261 | 0.229 | 0.231 | 0.251 | 0.245 | – | – | – | – | –
NCI-H1793 | 1.12 | 0.857 | 0.845 | 0.327 | 0.168 | 0.386 | 0.458 | 0.412 | 0.276 | 0.283 | 0.396 | 0.345 | 0.316 | 0.382 | 0.329 | 0.364 | 0.365 | 0.31 | 0.325 | 0.365
NCI-H522 | – | – | – | – | – | – | – | – | – | – | – | – | – | – | – | 0.897 | 1.35 | 1 | 0.965 | 0.825
LOU-NH91 | 1.01 | 1.14 | 0.961 | 0.561 | 0.472 | 0.649 | 0.761 | 0.556 | 0.41 | 0.314 | 0.551 | 0.57 | 0.5 | 0.525 | 0.576 | 0.539 | 0.455 | 0.44 | 0.507 | 0.515
NCI-H1355 | 0.875 | 0.704 | 0.789 | 0.207 | 0.211 | 0.982 | 0.847 | 0.657 | 0.268 | 0.302 | 0.394 | 0.537 | 0.461 | 0.431 | 0.454 | 0.442 | 0.446 | 0.415 | 0.402 | 0.395
NCI-H441 | 0.47 | 0.374 | 0.205 | 0.111 | 0.159 | 0.708 | 0.489 | 0.357 | 0.138 | 0.173 | 0.56 | 0.588 | 0.414 | 0.492 | 0.433 | 0.282 | 0.226 | 0.212 | 0.211 | 0.231
NCI-H1648 | – | – | – | – | – | – | – | – | – | – | – | – | – | – | – | 0.239 | 0.291 | 0.264 | 0.302 | 0.3
ChaGo-K-1 | – | – | – | – | – | 0.708 | 0.574 | 0.394 | 0.309 | 0.326 | 1.01 | 0.713 | 0.615 | 0.463 | 0.376 | 0.913 | 0.937 | 0.837 | 0.749 | 0.535
NCI-H358 | 0.918 | 1.06 | 0.304 | 0.183 | 0.181 | – | – | – | – | – | 0.373 | 0.366 | 0.321 | 0.448 | 0.376 | 0.141 | 0.148 | 0.144 | 0.149 | 0.183
Calu-6 | 0.946 | 0.708 | 0.317 | 0.101 | 0.109 | 0.667 | 0.232 | 0.162 | 0.119 | 0.128 | 0.914 | 0.906 | 0.823 | 0.739 | 0.486 | – | – | – | – | –
EBC-1 | 0.812 | 0.628 | 0.182 | 0.102 | 0.13 | 0.348 | 0.262 | 0.172 | 0.112 | 0.139 | 0.392 | 0.344 | 0.363 | 0.365 | 0.358 | – | – | – | – | –
IA-LM | 0.252 | 0.197 | 0.155 | 0.0583 | 0.0889 | 0.238 | 0.159 | 0.0746 | 0.0607 | 0.0616 | 0.404 | 0.373 | 0.353 | 0.261 | 0.242 | – | – | – | – | –
NCI-H1563 | 1.73 | 1.18 | 0.753 | 0.606 | 0.6 | – | – | – | – | – | 0.733 | 0.664 | 0.639 | 0.629 | 0.657 | – | – | – | – | –
NCI-H661 | 0.636 | 0.757 | 0.576 | 0.258 | 0.247 | – | – | – | – | – | 0.431 | 0.393 | 0.368 | 0.34 | 0.402 | 0.385 | 0.428 | 0.399 | 0.416 | 0.374
NCI-H1299 | 0.903 | 0.768 | 0.441 | 0.189 | 0.186 | 1.1 | 0.886 | 0.472 | 0.249 | 0.247 | 0.785 | 0.663 | 0.62 | 0.739 | 0.617 | – | – | – | – | –
NCI-H2342 | – | – | – | – | – | – | – | – | – | – | – | – | – | – | – | 0.514 | 0.483 | 0.482 | 0.531 | 0.526
ABC-1 | 0.875 | 0.795 | 0.618 | 0.238 | 0.218 | – | – | – | – | – | 0.749 | 0.783 | 0.782 | 0.68 | 0.535 | 0.976 | 0.805 | 0.886 | 0.651 | 0.504
SW 900 | – | – | – | – | – | – | – | – | – | – | – | – | – | – | – | 0.548 | 0.622 | 0.572 | 0.393 | 0.505
NCI-H650 | 0.611 | 0.604 | 0.266 | 0.186 | 0.174 | – | – | – | – | – | 0.948 | 1.03 | 0.826 | 0.791 | 0.562 | 0.318 | 0.337 | 0.332 | 0.276 | 0.232
NCI-H2170 | – | – | – | – | – | 0.709 | 0.313 | 0.34 | 0.144 | 0.164 | 0.361 | 0.266 | 0.357 | 0.33 | 0.283 | 0.39 | 0.411 | 0.384 | 0.379 | 0.342
A549 | 0.635 | 0.626 | 0.496 | 0.0571 | 0.047 | 1.02 | 0.991 | 0.197 | 0.04 | 0.0449 | 0.579 | 0.51 | 0.527 | 0.459 | 0.125 | – | – | – | – | –
NCI-H596 | 1.2 | 1.3 | 0.744 | 0.853 | 0.304 | 0.969 | 0.99 | 0.62 | 0.68 | 0.28 | 0.455 | 0.36 | 0.389 | 0.333 | 0.373 | – | – | – | – | –
